According to patent publication US8729227B2, “Compounds for control of appetite” (University of Cincinnati, priority 2006, dated 2014):

Key:
C57BL/6 male mice [1] = assay: Feeding pattern of fasted mice after ip injection of hPP or B-74 (Example II, FIG. 1); assay type: in vivo; settings: 18 h fasted mice, B-74 100 nmol/mice, versus saline control
Description: To study the feeding patterns of animals treated with B-74, seven to eight week old C57BL/6 male mice (Harlan Laboratories, Indianapolis, Ind.) were individually housed in cages in a temperature controlled room (25° C.) under 12-hour light/dark cycles. Mice had free access to water and standard chow and were acclimatized to daily ip saline injections. […] Food was provided ten (10) minutes later, and the 2 and 4 hour food intake was monitored. Statistical significance was determined by ANOVA, with individual means being compared post-hoc by Tukey's corrected t-test.

[2] = native PP; cited from earlier work
C57BL/6 male mice [3] = assay: Preliminary dose study of B-48 on food intake of fasted mice (Example III); assay type: in vivo; settings: ip, overnight (18 h) fasted mice, food intake monitored over 1-24 h; preliminary studies, results not shown
Description: To further study the feeding patterns of animals treated with B-48, experiments were performed in seven to eight week old C57BL/6 male mice (Harlan Laboratories, Indianapolis, Ind.) after acclimatization of mice for one week. More specifically, in preliminary studies, overnight (18 h) fasted animals were injected (ip) with 0.1 ml of saline or saline (0.1 ml) containing various concentrations of B-48 (0.025, 0.050, 0.100 or 0.150 μmol/mice) (n=8-10 per group). The mice were provided with a known quantity of chow 10 min later. The food intake was monitored over 1-24 h.

C57BL/6 male mice [4] = assay: Food intake of fasted mice after ip B-48 or B-74 alone or together (Example IV, FIGS. 2 and 3); assay type: in vivo; settings: for Percentage of Inhibition of Food Intake Compared to Saline: B-48 vs. (B-48 + B-74), fasted mice, 0.050 μmol each compound
Description: To further compare the inhibitory effects of injecting (ip) 0.050 μmol of B-48 or B-74 alone or together (B-48+B-74) on the food intake by fasted mice, additional experiments were conducted.
Accordingly, to study the feeding patterns of animals treated with B-48 or B-74 alone or together (B-48+B-74), seven to eight week old C57BL/6 male mice (Harlan Laboratories, Indianapolis, Ind.) were individually housed in cages in a temperature controlled room (25° C.) under 12-hour light/dark cycles. The mice had free access to water and standard chow. After acclimatizing for one week, mice were fasted 18 hours before the experiment. The fasted animals were injected (ip) with 0.1 ml of saline or saline (0.1 ml) containing B-48 (0.050 μmol/mice) or B-74 (0.050 μmol/mice) alone or together, B-48+B-74 (0.100 μmol/mice, i.e. 0.050 μmol/mice per each compound), (n=8-10 per group). The mice were provided with a blown quantity of chow 10 minutes later. The food intake was monitored over 1-24 h. Statistical significance was determined by AN OVA, with individual means being compared post-hoc by Tukey's corrected t-test.

APLEPVYPGDNATPEQMAQYAADLRRYINMLTRPRY [PP]
2 h food intake (C57BL/6 male mice [1]; 2 h): inhibited | 4 h food intake (C57BL/6 male mice [1]; 4 h): inhibited | half-life [2]: about six

N-α-Ac[Nle^24,28,Trp^30,Nva^31,ψ^35/36]PYY(22-36)-NH2 (ASXRHYXNWXTRQRY; N-acetyl, C-amide, Nle, Nva, reduced CH2-NH bond; synthesized by man) [B-48, PYY(22-36) analog, Y2 receptor agonist; ψ is —CH2-NH—]
minimum dose required to exhibit significant inhibitory effects on food intake (C57BL/6 male mice [3]): 0.050 μmol/mice | Percentage of Inhibition of Food Intake Compared to Saline (C57BL/6 male mice [4]; 2 hours after injection): 39% | Percentage of Inhibition of Food Intake Compared to Saline (C57BL/6 male mice [4]; 4 hours after injection): 30% | Percentage of Inhibition of Food Intake Compared to Saline (C57BL/6 male mice [4]; 8 hours after injection): 16% | inhibition of food intake over the 24 h time period (C57BL/6 male mice [4]; 18 h fasted mice, 0.050 μmol/mice per each compound, alone or together): inhibited food intake to a greater extent than the control | Percentage of Inhibition of Food Intake Compared to Saline (C57BL/6 male mice [4]; 24 hours after injection): 7%
